The results in this text go back to ChEMBL document CHEMBL1201862, “PubChem BioAssay data set” (2004).

Test systems include SF-268; UACC-62; HCT-116; HCT-15; NCI-H226; NCI-H23; RPMI-8226; MOLT-4; M14; SW-620; SF-295; NCI-H460; OVCAR-8; A549; OVCAR-4; SK-MEL-28; U-251; SR; SK-OV-3; Malme-3M.
What all share (test): inhibition of tumour cell growth, NCI panel, 48 h

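Cells were grown in 96-well plates and exposed to each compound for 48 hours at five concentrations; endpoints were interpolated linearly between bracketing concentrations, or set to the highest concentration if not reached. GI50: concentration for 50% inhibition of growth.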 Activity calls are given as the source filed them. No stated cut-off is given here; in the data, active = GI50 up to about 1.1 µM and inactive = higher.

In the case of `CN(C)c1ccc(/C=C/C(=O)N[C@@H]2C(=O)N3[C@@H]2SC(C)(C)[C@@H]3C(=O)O)cc1`, the GI50 in the experiment on SF-268 was > 100 µM (inactive); in the experiment with UACC-62, > 100 µM (inactive); in the experiment on HCT-116 it was 58.9 µM (inactive); with HCT-15, over 100 µM; with NCI-H226 it was > 100 µM (inactive); in the experiment with NCI-H23, > 100 µM (inactive). The GI50 with RPMI-8226, in the experiment with MOLT-4, with M14, in the experiment on SW-620, in the experiment with SF-295 and in the experiment on NCI-H460 was > 100 µM (inactive) throughout. Also, the GI50 in the experiment on OVCAR-8, in the experiment with A549, with OVCAR-4, in the experiment on SK-MEL-28, with U-251 and in the experiment with SR was > 100 µM (inactive) each time.
Take `CCOC(=O)/C(=C/c1cn(C(C)=O)c2ccccc12)P(=O)(OC)OC`: the GI50 was 30.8 µM (inactive) in the experiment on HCT-116; 29.7 µM with HCT-15; 33.8 µM (inactive) in the experiment with NCI-H23; 19.9 µM (inactive) in the experiment with RPMI-8226; 25.4 µM (inactive) in the experiment with MOLT-4; 52.4 µM (inactive) with M14. Besides, the GI50 in the experiment on SK-OV-3 was 25.1 µM (inactive); in the experiment on SW-620, 41.8 µM (inactive); in the experiment with SF-295, 44.4 µM (inactive); in the experiment with NCI-H460, 24.4 µM (inactive); with OVCAR-8 it was 46.7 µM (inactive); in the experiment on A549, 33.2 µM (inactive). For the same compound, the GI50 in the experiment on OVCAR-4 was 33.4 µM (inactive); in the experiment with SK-MEL-28, 37.2 µM (inactive); in the experiment with U-251 it was 30.4 µM (inactive); with SR, 24.8 µM (inactive).
In the case of `CCOc1c(/N=N/c2ccccc2Cl)c(-c2ccccc2)nn1C(=S)S`, the GI50 was > 100 µM (inactive) with SF-268; 31.2 µM (inactive) in the experiment on UACC-62; 28 µM (inactive) with HCT-116; 23.1 µM in the experiment with HCT-15; 20.8 µM (inactive) in the experiment with NCI-H226; 37.2 µM (inactive) in the experiment with Malme-3M. The GI50 in the experiment with NCI-H23 was 30.3 µM (inactive); in the experiment with MOLT-4, 23.9 µM (inactive); in the experiment on M14, 47.9 µM (inactive); with SK-OV-3, > 100 µM (inactive); in the experiment with SW-620, 46.6 µM (inactive); in the experiment on SF-295 it was 33.6 µM (inactive). Moreover, the GI50 with NCI-H460 is 45.2 µM (inactive); with OVCAR-8, 54 µM (inactive); with A549, 33.2 µM (inactive); in the experiment with OVCAR-4, 48.4 µM (inactive); in the experiment on SK-MEL-28, > 100 µM (inactive); in the experiment on U-251, 51.1 µM (inactive). For the same compound, the GI50 in the experiment on SR was 26.5 µM (inactive).
For `C=CS(=O)(=O)CCN1CC1`, the GI50 is > 10 µM (inactive) in the experiment on SF-268; > 10 µM (inactive) in the experiment with UACC-62; > 10 µM (inactive) with HCT-116; over 10 µM in the experiment with HCT-15; > 10 µM (inactive) with Malme-3M; > 10 µM (inactive) with NCI-H23. Further, the GI50 with RPMI-8226, in the experiment with MOLT-4, with M14, in the experiment on SK-OV-3, with SW-620 and with SF-295 was > 10 µM (inactive) throughout. Also, the GI50 with OVCAR-8, with A549, in the experiment on OVCAR-4, in the experiment with SK-MEL-28, in the experiment with U-251 and in the experiment on SR was > 10 µM (inactive) each time.
On to `Cc1c(N(Cc2ccccc2)Cc2ccccc2)nc(S(C)(=O)=O)nc1S(C)(=O)=O`, for which the GI50 with SF-268 is 1.95 µM (inactive); in the experiment on UACC-62, 1.71 µM (inactive); in the experiment with HCT-116 it was 1.66 µM (inactive); in the experiment on HCT-15 it was 2.56 µM; in the experiment with NCI-H226, 12.7 µM (inactive); in the experiment with Malme-3M, 5.36 µM (inactive). For the same compound, the GI50 is 1.72 µM (inactive) in the experiment with NCI-H23; 2.74 µM (inactive) in the experiment with RPMI-8226; 2.11 µM (inactive) with MOLT-4; 2.14 µM (inactive) in the experiment on M14; 14.4 µM (inactive) in the experiment on SK-OV-3; 1.93 µM (inactive) with SW-620. Besides, the GI50 with SF-295 was 17.7 µM (inactive); in the experiment with NCI-H460, 5.14 µM (inactive); in the experiment with OVCAR-8, 1.85 µM (inactive); in the experiment on A549 it was 15.3 µM (inactive); with U-251, 2.53 µM (inactive); in the experiment with SR it was 1.58 µM (inactive).
For `O=C(O)/C(=C\c1ccncc1)c1cccc2ccccc12`, the GI50 was > 100 µM (inactive) with SF-268; > 100 µM (inactive) with HCT-116; over 100 µM in the experiment with HCT-15; > 100 µM (inactive) with Malme-3M; > 100 µM (inactive) in the experiment with NCI-H23; > 100 µM (inactive) with RPMI-8226. The GI50 in the experiment on MOLT-4, in the experiment on M14, with SK-OV-3, with SW-620, in the experiment with SF-295 and in the experiment on NCI-H460 was > 100 µM (inactive) throughout. Besides, the GI50 in the experiment with OVCAR-8 was > 100 µM (inactive); with A549 it was 90.6 µM (inactive); in the experiment with OVCAR-4, > 100 µM (inactive); with SK-MEL-28 it was > 100 µM (inactive); in the experiment with U-251, > 100 µM (inactive); in the experiment with SR it was > 100 µM (inactive).
In the case of `CC(C)(C)C(=O)OCC1OC(N=[N+]=[N-])C(OC(=O)C(C)(C)C)C(OC(=O)C(C)(C)C)C1OC(=O)C(C)(C)C` (stereo not drawn), the GI50 is > 100 µM (inactive) with SF-268; > 100 µM (inactive) in the experiment on UACC-62; > 100 µM (inactive) in the experiment on HCT-116; over 100 µM with HCT-15; > 100 µM (inactive) with Malme-3M; > 100 µM (inactive) in the experiment on NCI-H23. The GI50 with RPMI-8226, in the experiment on MOLT-4, in the experiment on M14, in the experiment on SK-OV-3, in the experiment on SW-620 and in the experiment with SF-295 was > 100 µM (inactive) each time. Also, the GI50 in the experiment on NCI-H460, in the experiment on OVCAR-8, with A549, with OVCAR-4, with SK-MEL-28 and in the experiment on U-251 was > 100 µM (inactive) throughout. For the same compound, the GI50 with SR is > 100 µM (inactive).
With `CCN1C(=O)c2cc(OC)c(OC)cc2C(=O)C12OC(=O)c1cc3c(cc12)OCO3` (stereo not drawn), the GI50 is 69.7 µM (inactive) with SF-268; 80.5 µM (inactive) in the experiment on UACC-62; 33.1 µM (inactive) in the experiment on HCT-116; over 100 µM in the experiment with HCT-15; > 100 µM (inactive) with NCI-H226; > 100 µM (inactive) in the experiment with Malme-3M. In addition, the GI50 in the experiment with NCI-H23 is > 100 µM (inactive); in the experiment on RPMI-8226 it was 24.1 µM (inactive); in the experiment on MOLT-4, > 100 µM (inactive); with M14, 97.3 µM (inactive); in the experiment with SW-620, > 100 µM (inactive); with SF-295, 68.7 µM (inactive). Besides, the GI50 with NCI-H460 is 43.4 µM (inactive); with OVCAR-8 it was 48 µM (inactive); in the experiment on A549 it was 36.9 µM (inactive); in the experiment on OVCAR-4, 69.8 µM (inactive); in the experiment with SK-MEL-28 it was > 100 µM (inactive); in the experiment on U-251, 43 µM (inactive). Besides, in the experiment on SR, the GI50 was 51.4 µM (inactive).
Take `CCCCNC1=C2C(=O)NN=C2CO1`: the GI50 in the experiment with SF-268 is > 100 µM (inactive); with UACC-62 it was > 100 µM (inactive); in the experiment on HCT-116, > 100 µM (inactive); in the experiment with HCT-15 it was over 100 µM; in the experiment with NCI-H226, > 100 µM (inactive); in the experiment with NCI-H23, > 100 µM (inactive). The GI50 in the experiment with RPMI-8226, in the experiment with MOLT-4, with M14, in the experiment on SK-OV-3, with SW-620 and in the experiment with SF-295 was > 100 µM (inactive) in each case. In addition, the GI50 with NCI-H460, with OVCAR-8, with A549, in the experiment on OVCAR-4, with SK-MEL-28 and in the experiment with U-251 was > 100 µM (inactive) throughout. In the experiment with SR, the GI50 was > 100 µM (inactive).
Take `O=C(NNC(=O)c1nsc2ccccc12)c1ccc(Cl)cc1`: the GI50 is 17.7 µM (inactive) in the experiment with SF-268; > 10 µM (inactive) with UACC-62; 17.5 µM (inactive) in the experiment with HCT-116; 18.2 µM in the experiment with HCT-15; 21.9 µM (inactive) in the experiment with NCI-H23; 20.4 µM (inactive) in the experiment on RPMI-8226. For the same compound, the GI50 in the experiment with MOLT-4 was 20.4 µM (inactive); in the experiment on M14 it was 19.5 µM (inactive); with SW-620 it was 35.4 µM (inactive); with NCI-H460, > 100 µM (inactive); in the experiment with OVCAR-8, 29.2 µM (inactive); in the experiment on A549, 21.7 µM (inactive). The GI50 is > 10 µM (inactive) with OVCAR-4, 16.9 µM (inactive) in the experiment with SK-MEL-28, 16.7 µM (inactive) in the experiment with U-251 and 25.1 µM (inactive) with SR.
As to `C/C(=N/NS(=O)(=O)c1ccc([N+](=O)[O-])cc1)c1cccc[n+]1[O-]`, the GI50 in the experiment on SF-268 was > 100 µM (inactive); in the experiment with UACC-62, > 100 µM (inactive); in the experiment with HCT-116 it was > 100 µM (inactive); in the experiment on HCT-15, over 100 µM; in the experiment with NCI-H23, > 100 µM (inactive); in the experiment on RPMI-8226 it was > 100 µM (inactive). In addition, the GI50 with MOLT-4, in the experiment with M14, in the experiment with SK-OV-3, in the experiment on SW-620, with SF-295 and in the experiment on NCI-H460 was > 100 µM (inactive) each time. Moreover, the GI50 in the experiment with OVCAR-8, in the experiment on A549, with OVCAR-4, in the experiment on SK-MEL-28, with U-251 and in the experiment with SR was > 100 µM (inactive) throughout.
